How the values were obtained:
[1] = Antioxidant (Aox) potency of identified phenolic acids; conditions: for Contribution towards AOX potency of GRAOX: calculated contribution of GRAOX components
Procedure: The identified phenolic acids were examined for their ability to inhibit proton potassium ATPase activity and their antioxidant potency was also determined.

[2] = target: Proton Potassium ATPase (H+ K+ ATPase) (Ovis aries, UniProt A0ACI6QGK8); assay: Proton potassium ATPase inhibition (PPI), inorganic phosphate release; assay type: biochemical, sheep; conditions: calculated contribution of GRAOX components
Procedure: Fresh sheep stomach was obtained from local slaughterhouse at Mysore. The mucosa of gastric fundus was cut off and the inner layer were scraped for parietal cells and homogenized in 16 mM Tris buffer (pH 7.4) containing 10% triton-x100 and centrifuged at 6000 rpm for 10 min. The supernatant (enzyme extract) was used for the assay. Protein content was determined according to Brad ford's method using BSA as standard.
Inorganic phosphate formed was measured spectrophotometrically at 400 nm. Enzyme activity was calculated as μ moles of Pi released/hr at various doses of GRAOX and GRPP. […] (FIG. 1, Table. 1)

Chain of Proton Potassium ATPase (H+ K+ ATPase) (A0ACI6QGK8 entry or part of it): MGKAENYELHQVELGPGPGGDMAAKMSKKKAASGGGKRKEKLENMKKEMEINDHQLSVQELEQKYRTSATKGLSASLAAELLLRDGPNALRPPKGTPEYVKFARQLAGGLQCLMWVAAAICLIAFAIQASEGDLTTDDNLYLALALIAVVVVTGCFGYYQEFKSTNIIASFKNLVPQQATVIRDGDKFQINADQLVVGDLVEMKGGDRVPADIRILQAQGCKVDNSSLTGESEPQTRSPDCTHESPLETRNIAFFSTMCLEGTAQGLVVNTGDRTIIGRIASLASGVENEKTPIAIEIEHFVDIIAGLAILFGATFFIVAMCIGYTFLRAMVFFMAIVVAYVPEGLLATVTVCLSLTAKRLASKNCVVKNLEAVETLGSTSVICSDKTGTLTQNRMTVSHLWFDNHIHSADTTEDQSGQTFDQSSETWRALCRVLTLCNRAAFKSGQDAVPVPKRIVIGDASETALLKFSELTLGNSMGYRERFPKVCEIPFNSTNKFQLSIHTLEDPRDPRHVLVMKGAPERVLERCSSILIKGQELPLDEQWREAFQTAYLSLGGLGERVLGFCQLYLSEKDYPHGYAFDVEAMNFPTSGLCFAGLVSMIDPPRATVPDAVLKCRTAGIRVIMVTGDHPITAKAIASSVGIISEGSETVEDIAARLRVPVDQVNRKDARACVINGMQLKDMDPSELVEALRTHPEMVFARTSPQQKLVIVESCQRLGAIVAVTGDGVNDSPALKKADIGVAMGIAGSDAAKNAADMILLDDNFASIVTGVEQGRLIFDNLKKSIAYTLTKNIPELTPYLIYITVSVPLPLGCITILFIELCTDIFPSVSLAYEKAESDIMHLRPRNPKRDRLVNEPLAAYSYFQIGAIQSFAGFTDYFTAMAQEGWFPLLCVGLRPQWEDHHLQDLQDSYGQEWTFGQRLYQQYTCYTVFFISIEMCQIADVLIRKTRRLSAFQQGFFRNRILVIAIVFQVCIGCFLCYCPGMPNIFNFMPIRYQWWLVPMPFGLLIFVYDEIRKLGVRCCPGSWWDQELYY
Chain of Proton Potassium ATPase (H+ K+ ATPase) (A0ACI6PNA7 entry or part of it, further chain): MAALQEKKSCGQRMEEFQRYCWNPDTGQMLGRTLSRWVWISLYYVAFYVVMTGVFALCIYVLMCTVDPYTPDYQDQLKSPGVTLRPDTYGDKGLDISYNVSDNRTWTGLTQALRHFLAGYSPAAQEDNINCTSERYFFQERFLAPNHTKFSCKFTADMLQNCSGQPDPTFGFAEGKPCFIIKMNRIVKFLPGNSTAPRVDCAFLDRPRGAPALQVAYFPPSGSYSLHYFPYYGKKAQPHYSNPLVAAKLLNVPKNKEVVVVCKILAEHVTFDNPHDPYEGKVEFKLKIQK

Compound | Contribution towards AOX potency of GRAOX [1] [%] | Contribution towards H+K+ ATPase activity of GRAOX [2] [%] | antioxidant potency fold higher than Cinnamic acid ([1]; ratio versus Cinnamic acid) [fold]
O=C(O)C=Cc1ccccc1 [Cinnamic acid] | ~2 | ~90 | –
Gallic acid/Tannic acid | ~92 | ~6 | ~20
